The test system of assay [1] is ovarian fragments of A. cf. solaris. Briefly: In vitro spawning assay with ovarian fragments of A. cf. solaris. Particulars: 1 h; for gonadotropic activity (shedding of mature eggs / spawning): 2 × 10^−10–2 × 10^−6 M, four separate assays. From the text:
Adult A. cf. solaris were collected from the Great Barrier Reef by Pacific Marine Group divers associated with the Great Barrier Reef Marine Park Authority (GBRMPA) before being transported to the University of the Sunshine Coast aquarium facility. Animals were briefly maintained in a re-circulating protein-skimmed and aerated saltwater system of approximately 1500 L. The animals used were approximately 25–55 cm in diameter and kept unfed for the duration of the experiment. The gender and ovarian maturation stage was determined by using a minor gonad tissue biopsy technique and, thereafter, animals were individually segregated in a flowthrough aerated tank filled with approximately 55 L of filtered seawater for a minimum of 24 h to recover and acclimatize.
AsoRGP1 and AsoRGP2 were synthesized as described previously. In addition, a modified form of AsoRGP2 was synthesized in which the N-terminal residue of the A-chain (glutamine, Q) was substituted with pyroglutamate (pQ), recognizing the possibility of this potential post-translational modification. […] In vitro spawning assays using ovarian fragments were performed following procedures described previously. In brief, the ovaries were excised and cut using scissors into small fragments containing only a few lobes. The ovarian fragments were then incubated in artificial seawater containing RGP-type peptides at a range of concentrations (2 × 10^−10–2 × 10^−6 M) for 1 h. As a control experiment, ovarian fragments were incubated in artificial seawater alone. The samples were examined to determine whether or not in vitro spawning had occurred and were scored as follows: (+ + +) spawning occurred and most oocytes had matured; (+ +) about 50% of oocytes had matured, ( +) a few oocytes had matured and ( −): no spawning occurred. […] Means ± standard error of mean (SEM) were determined from four separate assays using ovaries from four different animals.

The subject of the next assay is AsolLGR4(short). Put plainly: CRE reporter gene assay in HEK-293T cells transfected with AsolLGR4(short). It is filed as cell-based, A. cf. solaris. To be noted: HEK-293T cells with AsolLGR4(short), any concentration tested. From the text: (§1) The coding sequences for AsolRXFP/LGR3, AsolLGR4(short), and AsolLGR4(long) lacking a native N-terminal signal peptide were optimized for mammalian codon usage, but with the addition of a 5′ nucleotide sequence encoding an N-terminal bovine prolactin precursor signal peptide followed by a FLAG tag. The coding sequences for each construct are presented in Additional file 16: Dataset S9. Following the addition of a Kozak sequence (GCCACC) before the start codon of each coding sequence, the receptor cDNAs were synthesized in pUC57 vectors (GenScript, Hong Kong) with BamHI and XhoI restriction sites and Gateway‐compatible attB5 and attB2 sites at both ends to also allow recloning into pcDNA3.1/Zeo ( +) or Gateway (Invitrogen) vectors. pUC57 vectors were first digested with BamHI and XhoI restriction enzymes together with pcDNA3.1/Zeo ( +) followed by agarose gel purification of the digested DNA. Receptor constructs were ligated into the cut pcDNA3.1/Zeo ( +) vector to produce pcDNA-AsolRXFP/LGR3, pcDNA − AsolLGR4(short), and pcDNA − AsolLGR4(long). The sequences were confirmed by using Sanger sequencing on both strands. The AsolRXFP/LGR3 sequence was cloned into a lentiviral vector under the control of the constitutive human Ef1α promoter using Gateway technology (Invitrogen), according to the manufacturer’s instructions. […]
For orientation: A reporter such as luciferase makes a cellular process visible.

The next assay concerns AsolLGR4(long). Put plainly: CRE reporter gene assay in HEK-293T cells transfected with AsolLGR4(long). It is filed as cell-based, A. cf. solaris. Particulars: HEK-293T cells with AsolLGR4(long), any concentration tested.
From the text: as §1

“Also recorded” adds a separate entry of the source.

Experimental findings from paper PMC11863921 (BMC Biology, 2025) are described below.

Turning to “Acanthaster cf. solaris Relaxin-like gonad-stimulating peptide 2 [AsolRGP2]”, in assay [1], the “gonadotropic activity (shedding of mature eggs / spawning)” value was “exhibited gonadotropic activity; also recorded: dose-dependent induction of spawning”. The “relative potency in inducing shedding of mature eggs / spawning” value in assay [1] (semi-quantitative, compared with RGP1 or unmodified RGP2) is listed as “slightly less potent than RGP1”. Moreover, the “cAMP activity / CRE reporter gene activation” value in the assay with AsolLGR4(short) and in the assay with AsolLGR4(long) was “no significant increase in cAMP levels; also recorded: Neither AsolRGP1 nor AsolRGP2 induced CRE reporter gene activation” each time.
“Acanthaster cf. solaris Relaxin-like gonad-stimulating peptide 1 [AsolRGP1]”: the “gonadotropic activity (shedding of mature eggs / spawning)” value in assay [1] is on record as “exhibited gonadotropic activity; also recorded: dose-dependent induction of spawning”. The “cAMP activity / CRE reporter gene activation” value in the assay on AsolLGR4(short) and in the assay with AsolLGR4(long) was “no significant increase in cAMP levels; also recorded: Neither AsolRGP1 nor AsolRGP2 induced CRE reporter gene activation” each time.
